Results on two substances are retold here after patent US12697366B2, “Thermogenic compositions and methods” (Ohio State Innovation Foundation, priority 2016, dated 2026).

One assay relates to PPARα-LBD. As to the kind of experiment: PPARα-LBD luciferase reporter in transiently transfected HEK293 cells. In kind it is cell-based, human. The conditions noted are these: EREG, 12 hrs. The procedure: FIGS. 11A to 11I show adipokine Ereg is bilaterally associated with obesity and thermogenesis and activates PPARα. […] Microarray gene analysis was performed using Affymetrix microarray. FIG. 11B: Ereg expression was measured in non-differentiated and differentiated (day 5) 3T3-L1 adipocytes (Mann-Whitney test) using a customized NanoString mouse panel. FIG. 11C: Ereg expression was measured in differentiated (day 5) 3T3-L1 and Aldh1a1^−/− adipocytes by Taqman and normalized to TATA box protein (TBP). FIG. 11D: Plasma EREG concentrations were measured in mice from Study 1 by western blot. […] FIG. 11E: Plasma EREG concentrations were measured and quantified in iAb of WT and ob/ob mice from Study 2 by western blot (n=5 per each group). […] FIG. 11F: EREG was measured in iAb, subcutaneous and brown fat by western blot. Fat pads were dissected from WT mice on regular chow (Study 1). FIG. 11G: Ucp2 and Ucp1 expression was measured in differentiated 3T3-L1 adipocytes (day 5) stimulated with vehicle (PBS) or recombinant EREG (50 ng/mL) added in the differentiation medium I and II. Expression level were measured by Taqman and normalized by TBP. FIGS. 11H and 11I: HEK293 cells were transiently transfected with PPARα-LBD, UASTK-luciferase, and renilla. […] Data represents % PPARα-LBD activation. Asterisks indicate significant difference (p<0.05) compared to vehicle control, #, indicates statistical difference between PPARα-LBD activation by EREG alone and in the presence of inhibitors. Data represent mean±SD. The Mann-Whitney test was used throughout these studies for group comparison.
HEK293 cells ([…] cells, 24-well plates) were used for transient transfection experiments. Cells were transfected with human PPARα-LBD construct, yeast UASTK luciferase reporter (SwitchGear Genomics, Menlo Park, CA), using Fugene (Roche Applied Science, Indianapolis, IN). Transfections were carried out in OptiMeM (Invitrogen, Carlsbad, CA) medium for 12 hours as described previously. Luciferase was measured using Promega assay according to manufacturer's instructions
In general terms: A reporter such as luciferase makes a cellular process visible.

For assay [1], the system named is iAb (omental) fat explants. In words: LEP release from iAb (omental) fat explants of an obese patient (ELISA). In kind it is cell-based, human. The conditions noted are these: different EREG concentrations, 2 h. As to the method: FIGS. 14A to 14N show EREG induces expression of thermogenic and PPARα-target genes, suppresses inflammatory genes, and stimulates leptin secretion. FIGS. 14A to 14H and 14L: Markers for thermogenesis, adipogenesis, and inflammatory genes were analyzed using homogenates from whole iAb fat pads isolated from Veh- (white bars) and EREG-treated (black bars) DIO mice (Study 3). Gene expression was quantified using a customized NanoString panel. Data represent mean±SD, n.s.,—non-significant. FIG. 14I: LEP was measured in plasma in the same mice by ELISA. Data (mean±SD) are shown as percent to control (Veh, 100%) and is indicated as a dashed line. FIG. 14J: LEP release after stimulation with different concentrations of recombinant human EREGs was measured in explants of iAb (omental) tissue obtained from an obese insulin resistant patient. FIG. 14K: LEP release after stimulation of explants from same donor with and without EREG (50 ng/mL) in the presence and absence of insulin (Ins, 10 μg/mL), MAPK-I, EGFR-I, PI3K-I. Inhibitors concentrations were described in FIG. 1. FIG. 14M: LEP release after stimulation of iAb fat explants (2 h) from WT mice with different concentrations of recombinant mouse EREG. Experiment was repeated in three different WT mice. Data (mean±SD) are shown as percent to control (Veh, 100%). FIG. 14N: LEP release following stimulation of iAb fat explants (2 h) from WT mice with inhibitors of EGFR (10 μM) and MAPK (10 μM) in the presence or absence of EREG (50 ng/ml). Data (mean±SD) are shown as percent to control (Veh, 100%).
Abdominal fat tissue obtained from an obese patient was excised into 35 mg sections for stimulation with EREG. Explants were stimulated with EREG in DMEM containing 1% FBS for 2 h. Media was collected after 2 h, lyophilized and reconstituted in 120 μL deionized water for leptin detection using ELISA kit (Alpco, Salem, NH).
In general terms: An ELISA detects its analyte on a solid surface through an enzyme-linked reagent.

In another assay the test system is GLUT4. In words: GLUT4-GFP translocation in transfected NIH-3T3 cells (confocal microscopy). In kind it is cell-based. The conditions noted are these: insulin 10 μg/mL, nanoscaffold 10 μM. The source says: FIGS. 30A to 30D show translocation of GLUT4 (the major glucose transporter of adipocytes). Non-differentiated NIH-3[…][…]-GFP plasmid ([…] #52872) on Petri-35 dishes with coverslip ([…], cat #[…]-1.5-14-C, USA). […] FIG. 30A: GLUT4 (white vesicles) in cells (arrow) treated with vehicle are mainly in the cytosol. […] All images were taken at 60× magnification.

For the next assay, the system named is STZ mice. As to the kind of experiment: AAC2, INS and AAC2-INS treatment of STZ mice (streptozotocin-induced type 1 diabetes). To be noted: mouse, in vivo. The procedure: The untreated STZ mice died 32 days after STZ induction of experimental type 1 diabetes. […] Liver toxicity was measured by plasma levels of liver enzyme aspartate aminotransferase (AST).
Human INS was used for treatment to distinguish from endogenous mouse INS. […] Insulin tolerance test (ITT) was used to assess insulin sensitivity. […] Glucose tolerance test (GTT) was used to assess glucose tolerance.
[…] SLC6A6 is a principal transporter for neurotransmitter and osmolyte taurine, in all treated STZ mice. […] MVK a key kinase in cholesterol synthesis pathway. […] GPX6 a key antioxidant enzyme induced in the liver in response to oxidative stress.
Cognitive performance was measured using Barnes maze behavioral test to measure spatial learning (escape latency (60B) and number of errors (60C)) and memory (60D).

With “EREG: Epiregulin, member of the epidermal growth factor family; recombinant mouse or human protein”, in the assay on PPARα-LBD, the “induction of PPARα (PPARα-LBD activation)” value is recorded as “dose dependent induction”. In addition, in assay [1], the “release of LEP from iAb fat explants” value is reported as “dose dependent release”.

Regarding insulin: insulin (bovine or human), the GLUT4 translocation entry with GLUT4 was “translocated from cytosol to membrane”. Moreover, in the assay on STZ mice, the “expression of Glutathone peroxidase (GPX6)” value was “significantly increased” and the “expression of insulin 1 gene (Ins1) in the brain” value is given as “detrimental suppression”.
